Test results from US20250177408A1, “INHIBITOR OF INTERACTION BETWEEN YAP/TAZ AND TEAD, PREPARATION THEREOF, PHARMACEUTICAL COMPOSITION THEREOF AND USE THEREOF” (ETERN BIOPHARMA (SHANGHAI) CO., LTD., priority 2022, published 2025).
Where a name gives a salt, the structure may show the parent alone.

How the values were obtained:
[1] = biological target: YAP-TEAD protein interaction (His-TEAD1 (209-426) protein, Bio-YAP peptide (60-100)) (Homo sapiens, UniProt P28347); experiment: YAP-TEAD protein interaction HTRF experiment; type: binding; conditions: His-TEAD1 (209-426) 10 nM, Bio-YAP peptide 50 nM, read-out: Activity of each compound in blocking YAP-TEAD protein interaction (grades of IC50 values)
Procedure: In this example, the YAP-TEAD protein interaction HTRF experiment was used to detect the activity of each compound in blocking the YAP-TEAD protein interaction.
The experiment was carried out according to the following operation steps:
Step 1: His-TEAD1 (209-426) protein was added to a 384-well detection white plate to a final concentration of 10 nM, and buffer was used as the background signal well. The compounds to be tested were subjected to 3-fold dilution and a total of 10 concentration gradients were set up, and each diluted solution was mixed well. A certain volume of the compound to be tested was added to each well separately, 2 replicates were set for each concentration, and the final concentration of DMSO was controlled at 1%. Incubation was carried out at room temperature for 20 minutes. The amino acid sequence of TAED1 (209-426) used in this step is shown in SEQ ID NO: 1:
After mixing evenly, the mixture was incubated at room temperature for 10 minutes.
Step 3: Anti-His-Eu cryptate gold and streptavidin-XL665 were diluted according to the instructions and mixed in equal proportions. A certain volume of the detection reagent was added to the well, and the mixture was incubated at room temperature for 1 hour.
Step 4: The signal was detected using an Envision (Perkin Elmer) microplate reader at an excitation wavelength of 320 nm and emission wavelengths of 665 nm and 620 nm.
Step 5: The signal was calculated based on the ratio of Em665/Em620*10000.
(§1) The inhibition percentage (%) was calculated using the following formula: […]
The half-maximal inhibitory concentration (IC50) values were calculated using GraphPad Prism software.

[2] = system: MSTO-211H cells; experiment: Cell proliferation inhibition experiment (CellTiter-Glo); type: cell-based; conditions: Homo sapiens, 96 hours, read-out: Inhibitory activity of each compound on the proliferation of MSTO-211H cells (grades of IC50 values)
Procedure: In this example, the intracellular ATP was quantitatively determined by the CellTiter-Glo luminescence cell viability detection kit to detect the number of living cells in the culture.
Step 1: MSTO-211H (ATCC, CRL-2081TM) or NCI-H2052 (ATCC, CRL-5915TM) cells were inoculated in a 96-well plate at a density of 1500 cells per well with a volume of 100 μL per well, and the cells were incubated overnight in a 37° C., 5% carbon dioxide incubator. The culture medium used was RPMI1640 medium (GIBCO-A10491-01)+10% FBS (GIBCO-10099141C)+1% penicillin/streptomycin (Pen/Strep) (GIBCO-15070-063).
Step 2: The cells were treated with the compounds to be tested. The compounds to be tested were 3-fold diluted, and a total of 9 concentration gradients were set up; a certain volume of DMSO or the compounds to be tested was added to each well, respectively, and 2 replicates were set up for each concentration, and the final concentration of DMSO was controlled to be no higher than 0.5%. The cells were incubated for 96 hours in a 37° C., 5% carbon dioxide incubator.
Step 3: Cell viability was detected in the control group and treatment group using CellTiter-Glo Luminescent Cell Viability Assay kit (Promega, G7570). 50 μL of CellTiter-Glo was added to each well, mixed well, and incubated at room temperature for 10 minutes. The signal was read using En Vision® Multilabel Plate Reader (Perkin Elmer).
as §1
Using Graphpad Prism software, the IC50 values of the compounds inhibiting the CTG signal of cell proliferation activity was calculated.

Sequence of YAP-TEAD protein interaction (His-TEAD1 (209-426) protein, Bio-YAP peptide (60-100)) (P28347 209-426): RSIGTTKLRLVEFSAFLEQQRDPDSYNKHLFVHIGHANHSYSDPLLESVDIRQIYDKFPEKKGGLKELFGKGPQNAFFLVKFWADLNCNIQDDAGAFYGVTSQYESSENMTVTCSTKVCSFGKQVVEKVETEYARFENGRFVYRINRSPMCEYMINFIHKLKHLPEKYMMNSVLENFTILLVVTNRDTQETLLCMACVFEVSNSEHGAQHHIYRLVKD

Structure (SMILES)	IC50 [1] [nM]	IC50 [2] [nM]
NC(=O)c1cc2c(c(F)c1-c1c(Cl)c(F)cc3c1C[C@](c1ccccc1)([C@@H]1CCCN1)O3)Oc1cnn(CC(F)F)c(=O)c1O2 (atropisomer, axis not shown) [Compound 121, (S)-8-((S)-5-Chloro-6-fluoro-2-phenyl-2-((S)-pyrrolidin-2-yl)-2,3-dihydrobenzofuran-4-yl)-9-fluoro-3-(2,2-difluoroethyl)-4-oxo-3,4-dihydrobenzo[5,6][1,4]dioxo[2,3-d]pyridazine-7-carboxamide]	< 50	200 to 500
NC(=O)c1cc2c(c(F)c1-c1c(Cl)c(F)cc3c1C[C@](c1ccccc1)([C@@H]1CCCN1)O3)Oc1cnncc1O2 (atropisomer, axis not shown) [Compound 67, (S)-8-((S)-5-Chloro-6-fluoro-2-phenyl-2-((S)-pyrrolidin-2-yl)-2,3-dihydrobenzofuran-4-yl)-9-fluorobenzo[5,6][1,4]dioxo[2,3-d]pyridazine-7-carboxamide]	< 50	200 to 500
O=C(NC1CC1)c1cc2c(c(F)c1-c1c(Cl)c(F)cc3c1C[C@](c1ccccc1)([C@@H]1CCCN1)O3)Oc1c(cnn(CC(F)F)c1=O)O2 (atropisomer, axis not shown) [Compound 160]	< 50	< 200
[2H]C([2H])([2H])n1ncc2c(c1=O)Oc1c(cc(C(N)=O)c(-c3c(Cl)c(F)cc4c3C[C@](c3ccccc3)([C@@H]3CCCN3)O4)c1F)O2 (atropisomer, axis not shown) [Compound 131, (S)-8-((S)-5-Chloro-6-fluoro-2-phenyl-2-((S)-pyrrolidin-2-yl)-2,3-dihydrobenzofuran-4-yl)-9-fluoro-2-(methyl-d3)-1-oxo-1,2-dihydrobenzo[5,6][1,4]dioxo[2,3-d]pyridazine-7-carboxamide]	< 50	< 200
NC(=O)c1cc2c(c(F)c1-c1c(Cl)c(F)cc3c1C[C@](c1ccccc1)([C@@H]1CCCN1)O3)Oc1cn[nH]c(=O)c1O2 (atropisomer, axis not shown) [Compound 108, (S)-8-((S)-5-Chloro-6-fluoro-2-phenyl-2-((S)-pyrrolidin-2-yl)-2,3-dihydrobenzofuran-4-yl)-9-fluoro-4-oxo-3,4-dihydrobenzo[5,6][1,4]dioxo [2,3-d]pyridazine-7-carboxamide]	< 50	500 to 5000
NC(=O)c1cc2c(c(F)c1-c1c(Cl)c(F)cc3c1C[C@](c1ccccc1)([C@@H]1CCCN1)O3)Oc1c(cnn(C3COC3)c1=O)O2 (atropisomer, axis not shown) [Compound 145, (S)-8-((S)-5-Chloro-6-fluoro-2-phenyl-2-((S)-pyrrolidin-2-yl)-2,3-dihydrobenzofuran-4-)-9-fluoro-2-(oxetan-3-yl)-1-oxo-1,2-dihydrobenzo[5,6][1,4]dioxo [2,3-d]pyridazine-7-carboxamide]	< 50	–
CNC(=O)c1cc2c(c(F)c1-c1c(Cl)c(F)cc3c1C[C@](c1ccccc1)([C@@H]1CCCN1)O3)OC(CO)CO2 (stereo partly drawn) [Compound I-56, (S)-7-((S)-5-Chloro-6-fluoro-2-phenyl-2-((S)-pyrrolidin-2-yl)-2,3-dihydrobenzofuran-4-yl)-8-fluoro-2-(hydroxymethyl)-N-methyl-2,3-dihydrobenzo[b][1,4] dioxoine-6-carboxamide]	< 50	–
NC(=O)c1cc2c(c(F)c1-c1c(Cl)c(F)cc3c1C[C@](c1ccccc1)([C@@H]1CCCN1)O3)OC(CO)C2 (stereo partly drawn) [Compound I-52, (2S,6′S)-5-Chloro-6,7′-difluoro-2′-(hydroxymethyl)-2-phenyl-2-((S)-pyrrolidin-2-yl)-2,2′,3,3′-tetrahydro-[4,6′-bibenzofuran]-5′-carboxamide]	< 50	–
NC(=O)c1cc2c(c(F)c1-c1c(Cl)c(F)cc3c1C[C@](c1ccccc1)([C@@H]1CCCN1)O3)OCC2 (atropisomer, axis not shown) [Compound I-31, (2S,4S)-5-Chloro-6,7′-difluoro-2-phenyl-2-((S)-pyrrolidin-2-yl)-2,2′,3,3′-tetrahydrofuran-[4,6′-bibenzofuran]-5′-carboxamide]	< 50	–
CNC(=O)c1cc2c(c(F)c1-c1c(Cl)c(F)cc3c1C[C@](c1ccccc1)([C@@H]1CCCN1)O3)[C@@H](O)CC2 (atropisomer, axis not shown) [Compound I-59, (1S,6S)-6-((S)-5-Chloro-6-fluoro-2-phenyl-2-((S)-pyrrolidin-2-yl)-2,3-dihydrobenzofuran-4-yl)-7-fluoro-1-hydroxy-N-methyl-2,3-dihydro-1H-indene-5-carboxamide]	< 50	–
NC(=O)c1cc2c(c(F)c1-c1c(Cl)c(F)cc3c1C[C@](c1ccccc1)([C@@H]1CCCN1)O3)[C@H](O)CC2 (atropisomer, axis not shown) [Compound I-58, (1R,6S)-6-((S)-5-Chloro-6-fluoro-2-phenyl-2-((S)-pyrrolidin-2-yl)-2,3-dihydrobenzofuran-4-yl)-7-fluoro-1-hydroxy-2,3-dihydro-1H-indene-5-carboxamide]	50 to 500	–
NC(=O)c1cc2c(c(F)c1-c1c(Cl)c(F)cc3c1C[C@](c1ccccc1)([C@@H]1CCCN1)O3)OC(CO)CO2 (stereo partly drawn) [Compound I-53, (S)-7-((S)-5-Chloro-6-fluoro-2-phenyl-2-((S)-pyrrolidin-2-yl)-2,3-dihydrobenzofuran-4-yl)-8-fluoro-2-(hydroxymethyl)-2,4-dihydrobenzo[b][1,4] dioxoine-6-carboxamide]	< 50	–
[2H]c1c([2H])c([2H])c([C@]2([C@@H]3CCCN3)Cc3c(cc(F)c(Cl)c3-c3c(C(N)=O)cc4c(c3F)OCc3nn(C)cc3-4)O2)c([2H])c1[2H] (atropisomer, axis not shown) [Compound 117, (S)-7-((S)-5-Chloro-6-fluoro-2-(phenyl-d5)-2-((S)-pyrrolidin-2-yl)-2,3-dihydrobenzofuran-4-yl)-6-fluoro-2-methyl-2,4-dihydrochromeno[3,4-c]pyrazole-8-carboxamide]	> 5000	–
CNC[C@@]1(c2ccccc2)Cc2c(cc(F)c(Cl)c2-c2c(C(N)=O)cc3c(ccn3C)c2F)O1 (atropisomer, axis not shown) [Compound I-2, (S)-5-((S)-5-Chloro-6-fluoro-2-((methylamino)methyl)-2-phenyl-2,3-dihydrobenzofuran-4-yl)-4-fluoro-1-methyl-1H-indole-6-carboxamide]	< 50	–
NC(=O)c1cc2c(c(F)c1-c1c(Cl)c(F)cc3c1C[C@](c1ccccc1)([C@@H]1CCCN1)O3)Oc1ncnc(N)c1O2 (atropisomer, axis not shown) [Compound 113, (S)-4-Amino-8-((S)-5-chloro-6-fluoro-2-phenyl-2-((S)-pyrrolidin-2-yl)-2,3-dihydrobenzofuran-4-yl)-9-fluorobenzo[5,6][1,4]dioxo [2,3-d]pyrimidine-7-carboxamide]	50 to 500	–
COCCCNC[C@@]1(c2ccccc2)Cc2c(cc(F)c(Cl)c2-c2c(C(N)=O)cc3c(c2F)OCc2nn(C)cc2-3)O1 (atropisomer, axis not shown) [Compound 83, (S)-7-((S)-5-Chloro-6-fluoro-2-(((3-methoxypropyl)amino)methyl)-2-phenyl-2,3-dihydrobenzofuran-4-yl)-6-fluoro-2-methyl-2,4-dihydrochromeno[3,4-c]pyrazole-8-carboxamide formate]	–	< 200
CNC(=O)c1cc2c(c(F)c1-c1c(Cl)c(F)cc3c1C[C@](c1ccccc1)([C@@H]1CCCN1)O3)[C@H](O)CC2 (atropisomer, axis not shown) [Compound I-60, (1R,6S)-6-((S)-5-Chloro-6-fluoro-2-phenyl-2-((S)-pyrrolidin-2-yl)-2,3-dihydrobenzofuran-4-yl)-7-fluoro-1-hydroxy-N-methyl-2,3-dihydro-1H-indene-5-carboxamide]	50 to 500	–
